The record followed here is ChEMBL document CHEMBL5335824, “Research progress of LSD1-based dual-target agents for cancer therapy” (Bioorg Med Chem, 2024).

In assay [1] the target is T1, Histone-lysine N-methyltransferase EHMT2 (Homo sapiens, UniProt Q96KQ7).
T1 sequence (Q96KQ7 whole entry): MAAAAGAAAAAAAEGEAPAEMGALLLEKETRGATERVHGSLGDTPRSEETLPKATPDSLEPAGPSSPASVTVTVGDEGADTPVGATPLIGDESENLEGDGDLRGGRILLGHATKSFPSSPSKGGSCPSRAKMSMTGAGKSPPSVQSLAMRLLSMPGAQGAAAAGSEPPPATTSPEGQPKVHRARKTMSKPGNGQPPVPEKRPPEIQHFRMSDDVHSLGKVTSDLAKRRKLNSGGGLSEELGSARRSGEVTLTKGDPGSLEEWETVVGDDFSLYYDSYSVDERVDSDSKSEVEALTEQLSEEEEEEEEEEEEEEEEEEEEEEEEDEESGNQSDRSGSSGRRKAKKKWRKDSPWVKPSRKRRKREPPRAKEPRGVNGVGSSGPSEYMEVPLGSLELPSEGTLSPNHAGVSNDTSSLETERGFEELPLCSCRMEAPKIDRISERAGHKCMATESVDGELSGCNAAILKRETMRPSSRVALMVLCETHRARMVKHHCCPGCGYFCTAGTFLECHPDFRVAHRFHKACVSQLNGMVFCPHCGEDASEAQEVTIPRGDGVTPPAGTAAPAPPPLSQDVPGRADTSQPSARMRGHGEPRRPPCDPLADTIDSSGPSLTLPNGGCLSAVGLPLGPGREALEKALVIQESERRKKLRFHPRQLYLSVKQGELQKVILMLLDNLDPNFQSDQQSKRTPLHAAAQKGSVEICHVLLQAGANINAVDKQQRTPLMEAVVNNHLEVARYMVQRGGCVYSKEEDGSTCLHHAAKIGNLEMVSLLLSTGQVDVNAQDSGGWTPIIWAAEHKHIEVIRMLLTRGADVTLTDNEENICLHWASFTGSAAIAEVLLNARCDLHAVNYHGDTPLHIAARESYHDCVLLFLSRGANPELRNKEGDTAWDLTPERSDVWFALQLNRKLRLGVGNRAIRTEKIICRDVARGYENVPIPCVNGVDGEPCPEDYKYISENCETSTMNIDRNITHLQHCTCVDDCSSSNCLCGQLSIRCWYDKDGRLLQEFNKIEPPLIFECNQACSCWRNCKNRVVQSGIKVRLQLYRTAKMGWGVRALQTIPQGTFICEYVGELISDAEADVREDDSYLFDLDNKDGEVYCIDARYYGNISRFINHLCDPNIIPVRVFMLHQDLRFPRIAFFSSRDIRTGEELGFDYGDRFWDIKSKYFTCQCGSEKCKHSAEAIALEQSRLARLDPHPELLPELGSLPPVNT
Kind of assay: Inhibition of human G9a expressed in HEK293 cells. It is filed as cell-based.

The subject of assay [2] is NCI-H1975. Kind of assay: Antiproliferative activity against human NCI-H1975 cells assessed as reduction in cell viability incubated for 48 hrs by MTT assay. As to conditions: NCI-H1975, 48 h.
Assay [3] concerns MOLM-13. The assay is described as follows: Antiproliferative activity against human MOLM-13 assessed as reduction in cell growth incubated for 48 hrs by MTT assay. It is filed as functional, cell-based. The conditions noted are these: MOLM-13, 48 h. On the technique in general: Tetrazolium dyes change colour on reduction, which living cells bring about.
Assay [4] relates to Jurkat. The assay is described as follows: Antiproliferative activity against human Jurkat cells assessed as reduction in cell viability incubated for 48 hrs by cell titer-glo assay. It is filed as functional, cell-based. (In general: In ATP-based viability assays light output follows the ATP content of the culture.)
The test system of assay [5] is K562. Kind of assay: Antiproliferative activity against human K562 assessed as reduction in cell growth incubated for 48 hrs by MTT assay. It is filed as functional, cell-based. As to conditions: K562, 48 h.
The test system of assay [6] is THP-1. The assay is described as follows: Antiproliferative activity against human THP-1 cells incubated for 24 hrs by trypan blue reagent based analysis. It is filed as functional, cell-based. The conditions noted are these: THP-1, 24 h.
The subject of assay [7] is MCF7. The assay is described as follows: Antiproliferative activity against human MCF7 cells assessed as reduction in cell viability by MTT assay. It is filed as functional, cell-based.
For assay [8], the system named is PC-3. Kind of assay: Growth inhibition of human PC-3 cells assessed as reduction in cell viability by SRB assay. It is filed as functional. As to conditions: time 48 hrs. A general note: Sulforhodamine B stains cellular protein and so reports cell mass.
In assay [9] the test system is DU-145. The assay is described as follows: Antiproliferative activity against human DU-145 cells assessed as cell growth inhibition. It is filed as functional, cell-based.
Assay [10] has as its system MGC-803. Kind of assay: cells. The conditions noted are these: Homo sapiens, MGC-803, 72 h.
Assay [11] in a line: Inhibition of DCN1 (unknown origin) by TR-FRET analysis. The arrangement: species or system Homo sapiens.
Assay [12] deals with BGC-823. Kind of assay: cells. As to conditions: Homo sapiens, BGC-823, 72 h.
Assay [13] has as its system SGC-7901. The assay is described as follows: cells. As to conditions: Homo sapiens, SGC-7901, 72 h.
Assay [14] deals with MIA PaCa-2. The assay is described as follows: Antiproliferative activity against human MIA PaCa-2 cells assessed as reduction in cell viability incubated for 24 hrs by CCK-8 assay. It is filed as functional, cell-based. As to conditions: MIA PaCa-2, 24 h.
Assay [15] has as its target Spermine oxidase (Homo sapiens, UniProt Q9NWM0). Kind of assay: Inhibition of SMOX (unknown origin) using spermine as substrate preincubated for 1 hr followed by substrate addition and measured after 20 mins by luminometer analysis.
For assay [16], the system named is BXPC-3. The assay is described as follows: Antiproliferative activity against human BXPC-3 cells assessed as reduction in cell viability measured for 72 hrs by CCK-8 assay. It is filed as functional, cell-based. As to conditions: BXPC-3, 72 h.
Assay [17] concerns the target Lysine-specific histone demethylase 1A (Homo sapiens) (UniProt O60341). Kind of assay: Inhibition of LSD1 (unknown origin) at 10 uM relative to control.

The structures appear in SMILES notation. pIC50: −log10 of the molar value.

Chain of Spermine oxidase (Q9NWM0 whole entry): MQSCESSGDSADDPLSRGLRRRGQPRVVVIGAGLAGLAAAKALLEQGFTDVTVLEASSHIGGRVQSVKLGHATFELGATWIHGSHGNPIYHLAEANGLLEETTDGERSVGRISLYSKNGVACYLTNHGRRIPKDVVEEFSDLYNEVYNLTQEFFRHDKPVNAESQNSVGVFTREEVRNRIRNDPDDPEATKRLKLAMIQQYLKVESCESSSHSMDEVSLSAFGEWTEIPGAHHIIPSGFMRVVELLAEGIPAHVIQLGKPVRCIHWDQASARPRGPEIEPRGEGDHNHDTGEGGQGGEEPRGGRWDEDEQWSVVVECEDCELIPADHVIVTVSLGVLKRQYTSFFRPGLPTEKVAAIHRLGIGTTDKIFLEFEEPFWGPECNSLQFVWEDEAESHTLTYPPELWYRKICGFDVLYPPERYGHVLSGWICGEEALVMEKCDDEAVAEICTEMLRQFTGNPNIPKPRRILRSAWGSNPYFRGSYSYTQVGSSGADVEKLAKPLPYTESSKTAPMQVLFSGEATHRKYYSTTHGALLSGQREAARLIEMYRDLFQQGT

For orientation: pIC50 means the negative decadic logarithm of the IC50, by convention in mol/L. Regarding `COc1cc2nc(NCCCN(C)C)nc(NC3CCN(Cc4ccccc4)CC3)c2cc1OC`, the pIC50 in assay [1] was 6.11.
Turning to `C=CC(=O)Nc1cc(Nc2nccc(-c3cn(C)c4ccccc34)n2)c(OC)cc1N(C)CCN(C)C` [OSIMERTINIB], the pIC50 in assay [2] was […].
For the compound `CN(C)CCCNc1nc(NC2CCN(Cc3ccccc3)CC2)c2ccccc2n1`, the pIC50 in [1] was 4.38.
With `O=C(NO)c1ccc(CN2CCC(CN[C@@H]3C[C@H]3c3ccccc3)CC2)cc1`, the negative-log IC50 (pIC50) in [3] is 5.89; in [4], 4.81; in assay [5] it was 4.78; in assay [6], 4.79.
Take `CC/C(=C(/c1ccc(OCCN(C)C)cc1)c1ccc(OC(=O)N(C)CCN(C)C2CC2c2ccccc2)cc1)c1ccccc1` (stereo not drawn): the pIC50 in assay [7] was 4.54.
What is called GI50 is the concentration that inhibits growth by half. For `C#CCN(C)Cc1cccc(NC(=O)CCCCCCC(=O)NO)c1`, the concentration for 50% growth inhibition (GI50) in assay [8] was 330 nM. In addition, the pIC50 in assay [9] was 6.38.
For `Cc1cc(Sc2nnnn2CCN(C)C)n2nc(SCc3ccc(Cl)cc3)nc2n1`, the pIC50 is 6.28 in assay [10], 7.96 in [11], 6.00 in [12] and 6.07 in assay [13].
The inhibition is the drop in the measured response relative to a control, in per cent. For `Nc1n[nH]c(NCc2c(Cl)cccc2Oc2ccc(-c3ccccc3)cc2)n1`, the pIC50 was 4.21 in [14], 4.59 in assay [15] and less than 4.00 in assay [16]. The compound also registered an inhibition in assay [17] of 52.1%.
